A value given as a limit tells only on which side of the number the result lay.

The assay addresses T1, IRAK4 (Homo sapiens, UniProt Q9NWZ3).
T1 construct: purchased CARNA Bioscience 09-145
T1 sequence (Q9NWZ3 1-460): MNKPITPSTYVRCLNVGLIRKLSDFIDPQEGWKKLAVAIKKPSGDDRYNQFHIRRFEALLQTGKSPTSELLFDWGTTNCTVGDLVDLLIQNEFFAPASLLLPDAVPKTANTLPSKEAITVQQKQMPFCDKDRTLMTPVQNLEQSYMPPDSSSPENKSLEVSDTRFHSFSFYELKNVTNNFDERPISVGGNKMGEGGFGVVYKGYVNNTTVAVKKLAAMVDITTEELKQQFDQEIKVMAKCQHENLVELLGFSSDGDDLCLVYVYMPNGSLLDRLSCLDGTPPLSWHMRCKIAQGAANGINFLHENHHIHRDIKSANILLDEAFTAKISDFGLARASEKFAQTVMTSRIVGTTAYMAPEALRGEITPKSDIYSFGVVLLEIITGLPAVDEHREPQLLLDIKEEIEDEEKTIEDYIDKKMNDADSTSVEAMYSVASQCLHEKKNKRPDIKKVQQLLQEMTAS
The experiment in a line: IRAK-4 activity inhibition assay (Caliper). It counts as biochemical. Particulars: 3.5 nM IRAK4, 1.5 μM Peptide 8, 37 μM ATP. Put shortly: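 Mobility-shift (Caliper) assay with 3.5 nM IRAK4 in 50 mM HEPES pH 7.5, 0.0015% Brij-35, 5 mM MgCl2, 1 mM MnCl2, 2 mM DTT. Enzyme preincubated with compound 10 min at room temperature, then 1.5 μM peptide 8 and 37 μM ATP for 40 min. Inhibition from conversion % relative to DMSO and no-enzyme controls; 10-point IC50.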

As usually defined, the IC50 is the midpoint of a concentration-inhibition curve. Read a low IC50 as higher potency. The compound `N#Cc1ccc2ncnc(N[C@H]3CC[C@H](N4CCOCC4)CC3)c2c1` [Compound I-3, 4-(((1r,4r)-4-morpholinocyclohexyl)amino)quinazoline-6-carbonitrile] showed an IC50 of at most 5 µM. As to `N#Cc1ccc2ncnc(N[C@H]3CC[C@H](N4CCC5(CC4)CC5)CC3)c2c1` [Compound I-7, 4-(((1r,4r)-4-(6-azaspiro[2.5]octan-6-yl)cyclohexyl)amino)-quinazoline-6-carbonitrile], the IC50 was at most 5 µM.

For the origin of these results see US20150329498A1, “IRAK INHIBITORS AND USES THEREOF” (Nimbus Iris, Inc., priority 2014, published 2015).
